Experimental data published in ChEMBL document CHEMBL3600308, “Antiproliferative Trihydroxyalkylcyclohexenones from Pleiogynium timoriense” (J Nat Prod, 2015).

Test system: A2780
Test: Antiproliferative activity against drug-sensitive human A2780 cells assessed as inhibition of cell growth after 2 days by Alamar Blue assay
Format: functional, cell-based
Conditions: A2780, 48 h

IC50 [nM]	SMILES
800	CCCCCCCC/C=C\CCCCCCC[C@]1(O)C(=O)C=C[C@H](O)[C@H]1O
700	CCCCCCCC/C=C\CCCCCCCCC[C@]1(O)C(=O)C=C[C@H](O)[C@H]1O
800	CCCCCCCC/C=C\CCCCCCCCCCC[C@]1(O)C(=O)C=C[C@H](O)[C@H]1O
